These results are taken from article PMC12745361, “Dysadherin/YAP axis fuels stem plasticity and immune escape in liver cancer” (Signal Transduction and Targeted Therapy, 2025).

Holding throughout (format): cell-based, human
Assay [1] concerns PLC/PRF/5 cells. The assay can be described thus: Immunoblot of FAK/YAP signalling and pluripotency factors in dysadherin-OE PLC/PRF/5 cells. How it is done:
(§1) Cells were lysed in RIPA buffer for 20 minutes on ice, and protein concentrations were measured using a bicinchoninic acid (BCA) assay kit (Thermo Fisher Scientific). The proteins were denatured with SDS (Sigma‒Aldrich) and by boiling at 95 °C for 5 minutes. Equal amounts (10 µg) were resolved by 10% SDS-PAGE and transferred to PVDF membranes (Millipore, Burlington, MA, USA). The membranes were blocked with 10% bovine serum albumin (Sigma‒Aldrich) and incubated overnight at 4 °C with the indicated primary antibodies. […] After washing, membranes were incubated with HRP-conjugated secondary antibodies, and signals were developed using SuperSignal™ West Dura Substrate (Thermo Fisher Scientific) and visualized using a Digital 8 Imaging System (ProteinSimple, San Jose, CA, USA). The antibodies used for immunoblot analyses are listed in Supplementary Table S3.
In general terms: In western blotting, separated proteins are transferred to a membrane and probed.

Assay [2] has as its system PLC/PRF/5 cells. The assay can be described thus: PD-L1 immunoblot in dysadherin-OE PLC/PRF/5 cells. How it is done: as §1
The test system of assay [3] is PLC/PRF/5 cells. The assay can be described thus: Sphere formation and Aldefluor assays, dysadherin-OE PLC/PRF/5. To be noted: dysadherin-OE PLC/PRF/5 cells; sphere formation, Aldefluor, CSC gene expression. As to the method: The ALDH enzymatic activity of the cells was determined by ALDEFLUOR kit (Stem Cell Technologies, Vancouver, BC, Canada). Flow cytometric detection of cells expressing ALDH was performed. Diethylaminobenzaldehyde (DEAB), a specific ALDH inhibitor, was utilized to stain negative control cells.
To examine their self-renewal ability, cells were seeded at various densities in poly-HEMA-coated plates (Sigma‒Aldrich, St. Louis, MO, USA) under non-adherent, sphere–forming condition. After incubation, spheres were counted and measured (n = 3/group). Sphere viability was assessed using the CellTiter-Blue Cell Viability Assay (Sigma-Aldrich) according to the manufacturer’s instructions. Fluorescence was measured at 560 nm excitation and 590 nm emission using the Varioskan LUX multimode reader (Thermo Fisher Scientific, Waltham, MA, USA).

For assay [4], the system named is PLC/PRF/5 cells. Kind of assay: Clonogenic survival assay, dysadherin-OE PLC/PRF/5. As to conditions: dysadherin-OE PLC/PRF/5 cells; 200 cells/well, 14 days, n = 3/group. How it is done: A clonogenic assay was performed as previously described.[43],[44] Briefly, cells were seeded in 12-well plates (200 cells/well) and cultured for 14 days. Colonies >50 μm in diameter were counted after crystal violet staining (n = 3/group).

For assay [5], the system named is PLC/PRF/5 cells. Kind of assay: Sorafenib resistance (viability, Annexin V/PI apoptosis) in dysadherin-OE PLC/PRF/5 cells. To be noted: dysadherin-OE PLC/PRF/5 cells with sorafenib. As to the method: The rate of cell apoptosis was quantified using apoptosis assays performed with an Annexin V-Fluorescein isothiocyanate (FITC) Apoptosis Detection Kit I. (BD Biosciences, San Jose, CA, USA). Cells were washed twice with cold PBS to yield single-cell suspensions at a concentration of 1×10⁶ cells/mL. The suspension was transferred to a tube containing 5 µL of FITC, annexin V, and propidium iodide (PI). After gentle vortexing, the mixture was incubated at room temperature for 15 min in the dark. After incubation, 400 µL of 1 x binding buffer was added to each sample prior to flow cytometry analysis. FACS analysis was performed using a BD AccuriTM flow cytometer (BD Biosciences). FACS data were analyzed using FlowJo software (TreeStar, San Carlos, CA, USA) as described in our previous report.

Assay [6] has as its system Jurkat T cells co-cultured with PLC/PRF/5 cells. Kind of assay: Jurkat T-cell co-culture assay (CD69 flow cytometry, IFN-γ ELISA). As to conditions: Jurkat cells co-cultured with dysadherin-OE PLC/PRF/5 cells, CD3/CD28 stimulation, 24 hours. How it is done:
The rate of T-cell activation after co-culture with the HCC cells were evaluated by direct co-culture system. The assay was performed in 24-well plates. HCC cells (1x10^4) were seeded in the plates and cultured for 24 hours to allow attachment. The cells were transfected with or without YAP5SA and treated with or without verteporfin. Following 24 hours of treatment, the tumor cells were incubated for an additional 24 hours before introducing Jurkat cells (4x10^5). After 1hour of stabilization, T-cell activation was induced by adding soluble anti-CD3 (2 μg/mL, eBioscience, San Diego, CA, USA), soluble anti-CD28 (1 μg/mL, eBioscience), and anti-mouse Ig (5 μg/mL, Southern Biotech, Birmingham, AL, USA). After 24 hours of co-culture, the supernatant was collected for an IFN-γ ELISA assay, and Jurkat cells were harvested for FACS analysis to assess T-cell activation. The cells were stained with the PE-cy7 conjugated anti-CD69 antibody in FACS buffer for at least 1hour at 4 °C in the dark and analyzed on BD AccuriTM flow cytometer and data were processed using FlowJo software.
The concentration of IFN-γ in cell-free supernatants was measured using a Human IFN-γ ELISA Kit (R&D Systems, Minneapolis, MN, USA), following the manufacturer’s instructions.
On the technique in general: Flow cytometry measures light scatter and fluorescence of single cells or particles in a stream.

In assay [7] the test system is PLC/PRF/5 cells. The assay can be described thus: Immunosuppressive gene expression in dysadherin-OE PLC/PRF/5 cells. How it is done:
Total RNA was isolated using RNAiso reagent (Takara, Shiga, Japan), and purity was confirmed by 260/280 and 260/230 ratios. cDNA templates were synthesized from 0.5 μg of total RNA using the PrimeScriptTM 1st strand cDNA Synthesis Kit (Takara) with random primers. qPCR was performed using Power SYBR Green PCR Master Mix and Step-One Real-time PCR systems (Applied Biosystems, Foster City, CA, USA). The primers used are listed in Supplementary Table S2.

Assay [8] deals with OCT4 promoter. Kind of assay: OCT4 promoter luciferase reporter assay. As to conditions: dysadherin-OE PLC/PRF/5 cells, verteporfin 1.5 μmol/L, 24 h, normalized to β-galactosidase. As to the method:
Luciferase activity driven by the OCT4 promoter was measured using a reporter vector (GeneCopoeia, Rockville, MD, USA). For transfection, plasmid DNA, β-galactosidase control, and Lipofectamine (Sigma-Aldrich) were mixed at 1 μg:1 μg:2 μL in 300 μL of OptiMEM (Thermo Fisher Scientific, Waltham, MA, USA) medium per well. Following transfection, cells were treated with verteporfin (1.5 μmol/L) and incubated for 24 h, after which cell lysates were prepared. Luciferase readout was performed using Renilla luciferase assay system (Promega, Madison, WI, USA) and quantified with a SpectraMax L luminometer (Molecular Devices, San Jose, CA, USA). Relative luminescence values were normalized to β-galactosidase activity.
Background: In a reporter assay the amount or activity of a reporter protein is the signal.

For the molecule `COc1ccc([C@H](CC(=O)O)N2CCN(CCCc3ccc4c(n3)NCCC4)C2=O)cn1` [MK-0429], in assay [1], the “dysadherin-induced increase in FAK phosphorylation” value is recorded as “specifically suppressed”, the “dysadherin-induced increase in YAP activation” value is “specifically suppressed” and the “dysadherin-induced increase in pluripotency gene expression” value is “specifically suppressed”.

Regarding `CNC(=O)c1ccccc1Nc1cc(Nc2ccc(N3CCOCC3)cc2OC)ncc1C(F)(F)F` [PND-1186], in assay [1], the “dysadherin-induced increase in FAK phosphorylation” value is “specifically suppressed”, the “dysadherin-induced increase in YAP activation” value was “specifically suppressed” and the “dysadherin-induced increase in pluripotency gene expression” value is “specifically suppressed”. Also, in assay [1] (treatment with a FAK inhibitor), the “dysadherin OE-induced suppression of LATS1/2 phosphorylation” value is reported as “reversed”.

With Verteporfin, the YAP activity entry in assay [1] is “decreased”. The “dysadherin OE-induced p-FAK, YAP activation and pluripotency markers” value in assay [1] (immunoblot) is reported as “reversed these effects”. The “upregulation of PD-L1 expression by dysadherin OE” value in assay [2] is reported as “reversed”. In assay [3], the CSC features result was “suppressed”. Also, the clonogenicity entry in assay [4] was “suppressed”. Also, in assay [5], the “dysadherin OE-induced resistance to sorafenib” value is reported as “reversed”. The “dysadherin OE-mediated suppression of CD69 upregulation and IFN-γ release” value in assay [6] is “reversed”. Besides, the “expression of immunosuppressive genes” value in assay [7] is “markedly reduced”. For the same molecule, the “OCT4 promoter activity increased by dysadherin OE” value in assay [8] was “suppressed”.
